Data set [1] relates to Photobacterium phosphoreum. The note with it: Photobacterium phosphoreum bioluminescence; cited from earlier work.
For data set [2], the system named is Vibrio qinghaiensis sp. Q67. The data set can be described thus: microbe, parasite or virus in culture. Format: cell-based. The settings on record: for IC50: Vibrio qinghaiensis, 0.25 h, read-out: IC50, luminescence inhibition of standard mycotoxins; for IC50 / IC50, luminescence inhibition of standard mycotoxins: V. qinghaiensis sp. Q67, 15 min exposure, 22 °C, 0.8% NaCl.

The next data set has as its system kidney cells. The settings on record: cited from earlier work; for IC50: read-out: IC50, cytotoxic effects, ref Bouslimi et al. (2008) [29]; for IC50, cytotoxic effects: value in brackets after the µM value, ref Bouslimi et al. (2008) [29].
The next data set deals with Aliivibrio fischeri. The settings on record: cited from earlier work.
In data set [3] the test system is V. fischeri. The settings on record: cited from earlier work.
Data set [4] relates to V. fischeri. The note with it: ref Menz et al. (2013) [25]; cited from earlier work.
The test system of data set [5] is human promyelocytic leukemia cell line HL60. The settings on record: HL60 cells; ref Nagashima and Nakagawa (2014) [13]; cited from earlier work.
The next data set relates to mice. The note with it: ref Kouadio et al. (2013) [14]; cited from earlier work.

In brackets after ≈: the same amount, converted by molar mass.

For orientation: IC50 means the concentration that inhibits the measured activity by half. With `CC1=C2C(=CO[C@H](C)[C@H]2C)C(O)=C(C(=O)O)C1=O` [Citrinin], the “EC50 for toxic effects” value in data set [1] was 20.05 µg/mL. Moreover, the IC50 in data set [2] worked out at 12.23 ± 0.1 µg/mL (≈ 48.9 µM). Moreover, in the data set with kidney cells, the IC50 is 220 µM and the “IC50, cytotoxic effects” value was 55.06 µg/mL (≈ 220 µM).
What is called EC50 is the concentration giving half of the maximal effect. For aflatoxin B1, the figures for the 50% effective concentration (EC50) with Aliivibrio fischeri and in the data set on V. fischeri [3] were 23.3 µg/mL and 14.4 µg/mL, respectively.
On to `CCCC[C@@H](C)[C@@H](OC(=O)C[C@@H](CC(=O)O)C(=O)O)[C@H](C[C@@H](C)C[C@H](O)CCCC[C@@H](O)C[C@H](O)[C@H](C)N)OC(=O)C[C@@H](CC(=O)O)C(=O)O` [Fumonisin B1], for which the “IC50, luminescence inhibition of standard mycotoxins” value in data set [2] was 14.88 ± 0.14 µg/mL.
Consider `O.O.O.O.O.O.O.O=S(=O)([O-])[O-].[Zn+2]` [ZnSO4, Zinc sulfate heptahydrate], for which the “IC50, luminescence inhibition by ZnSO4” value in data set [2] (V. qinghaiensis Q67, reference substrate, 15 min) is 7640 ± 420 µg/mL. Also, the “IC50, inhibition of relative luminescence” value in the data set on V. fischeri [4] is 26000 ± 3300 µg/mL.
Take `CC1=C[C@H]2O[C@@H]3[C@H](O)C[C@](C)([C@@]2(CO)[C@H](O)C1=O)[C@]31CO1` [Deoxynivalenol]: the “IC50, luminescence inhibition of standard mycotoxins” value in data set [2] turned out to be 30.74 ± 0.33 µg/mL. Besides, the “IC50, cell proliferation” value in data set [5] was 0.36 µg/mL (≈ 1.21 µM). Further, in the data set on mice, the “no-observed-adverse-effect level (NOAEL)” value is on record as “lower than 45 µg kg^−1 day^−1”.
As for `C[C@H]1CCCC(=O)CCC/C=C/c2cc(O)cc(O)c2C(=O)O1` [Zearalenone], the “EC50 for toxic effects” value in data set [1] was 13.51 µg/mL. The 50% inhibitory concentration (IC50) in data set [2] was found to be 9.71 ± 0.17 µg/mL (≈ 30.5 µM).
For `C[C@@H]1Cc2c(Cl)cc(C(=O)N[C@@H](Cc3ccccc3)C(=O)O)c(O)c2C(=O)O1` [Ochratoxin A], the “EC50 for toxic effects” value in data set [1] was 16.88 µg/mL. Moreover, the IC50 in data set [2] came out at 11.02 ± 0.1 µg/mL (≈ 27.3 µM). Also, in the data set on kidney cells, the concentration for half-maximal inhibition (IC50) is 50 µM and the “IC50, cytotoxic effects” value is 20.15 µg/mL (≈ 49.9 µM).
For the molecule `O=C1C=C2C(=CCOC2O)O1` (stereo not shown) [Patulin], the half-inhibitory concentration (IC50) in data set [2] was found to be 13.3 ± 0.14 µg/mL (≈ 86.4 µM).
